Measured values published in ChEMBL document CHEMBL1201862, “PubChem BioAssay data set” (2004).
Where “and” joins values, the source holds several entries; their conditions need not be identical. Identical values can stand only once. Each block holds one molecule with its values, some of them ahead of it. Calls of active or inactive are those of the source.

Key:
[1] = viability loss in CEM21 cells – cell-based, plate reader, dry powder, cytotoxicity control, dose response (AID 687026); format: functional
[2] = inhibition of Env-driven cell fusion – HIV entry, plate reader, dry powder, dose response (AID 687023); format: functional, cell-based
[3] = off-target signal loss in HeLa-CEM21 co-culture – HeLa F-luc CTL cells, cherry-picked, counter-screen for HIV-1 Env fusion inhibitor project, dose response (AID 652040); format: functional, cell-based;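 further: potency for signal decrease marking cytotoxic or nonspecific inhibition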
[4] = blockers of HIV-1 envelope-mediated cell-cell fusion – cherry-pick, dose response (AID 652057); format: functional, cell-based
[5] = HIV-1 AD8 envelope cell-cell fusion blockers – cherry-pick, dose response (AID 652062); format: functional, cell-based;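 further: luciferase signal from cell-cell fusion driven by HIV-1 clade B AD8 Env; potency is for inhibitors of fusion seen as a drop in luminescence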
[6] = blockers of HIV-1 ZM109 envelope-driven cell-cell fusion – HeLa effector, CEM target cells, luciferase, cherry-pick, dose response (AID 652058); format: functional, cell-based;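 further: luciferase signal from HIV-1 Env mediated cell-cell fusion of effector and target cells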
[7] = molecular target: T1, Sentrin-specific protease 7 (Homo sapiens, UniProt Q9BQF6); format: functional;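 further: Luminescence-based dose-response confirmation of ultra-high-throughput screening hits, measuring inhibition of SENP7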
T1 sequence (Q9BQF6 whole entry): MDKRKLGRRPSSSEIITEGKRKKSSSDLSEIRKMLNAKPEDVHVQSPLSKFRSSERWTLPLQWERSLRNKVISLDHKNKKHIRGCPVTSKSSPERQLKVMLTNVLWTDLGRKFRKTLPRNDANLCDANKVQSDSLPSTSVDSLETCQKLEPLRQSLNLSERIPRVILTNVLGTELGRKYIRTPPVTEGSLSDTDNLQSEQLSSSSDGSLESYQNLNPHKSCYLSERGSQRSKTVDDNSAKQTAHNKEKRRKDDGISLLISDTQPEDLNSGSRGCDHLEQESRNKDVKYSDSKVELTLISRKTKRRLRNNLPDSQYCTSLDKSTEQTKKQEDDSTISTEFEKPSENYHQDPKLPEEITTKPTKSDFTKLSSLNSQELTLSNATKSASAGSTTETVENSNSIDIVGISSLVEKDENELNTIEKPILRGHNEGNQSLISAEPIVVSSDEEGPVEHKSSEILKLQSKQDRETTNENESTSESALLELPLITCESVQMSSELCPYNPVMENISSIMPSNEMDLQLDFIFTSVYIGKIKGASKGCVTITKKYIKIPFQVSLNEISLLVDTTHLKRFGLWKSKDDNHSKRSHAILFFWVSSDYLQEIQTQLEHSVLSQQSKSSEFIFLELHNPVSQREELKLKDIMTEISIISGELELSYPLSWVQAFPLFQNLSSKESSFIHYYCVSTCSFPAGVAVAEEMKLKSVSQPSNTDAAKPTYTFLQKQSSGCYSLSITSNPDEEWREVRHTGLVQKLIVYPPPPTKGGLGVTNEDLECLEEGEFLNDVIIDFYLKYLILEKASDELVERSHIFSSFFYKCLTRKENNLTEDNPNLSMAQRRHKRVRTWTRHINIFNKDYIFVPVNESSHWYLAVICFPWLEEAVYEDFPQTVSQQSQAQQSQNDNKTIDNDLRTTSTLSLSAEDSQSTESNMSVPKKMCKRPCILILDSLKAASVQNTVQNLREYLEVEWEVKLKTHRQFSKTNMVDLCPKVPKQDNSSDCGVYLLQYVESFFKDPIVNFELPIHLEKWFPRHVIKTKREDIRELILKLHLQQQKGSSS

Caspase-9 = Caspase-9 (Homo sapiens, UniProt P55211); test: inhibitors of purified CASP9 protease – biochemical, fluorescence, plate reader, cherry-picked samples, selectivity assay for caspase-6 inhibitor project, dose response (AID 743293)
Caspase-8 = Caspase-8 (Homo sapiens, UniProt Q14790); test: inhibitors of purified CASP8 protease – biochemical, Z-IETD-R110 fluorescence, cherry-picked samples, selectivity assay for caspase-6 inhibitor project, dose response (AID 743294)
Caspase-7 = Caspase-7 (Homo sapiens, UniProt P55210); test: caspase-7 enzyme inhibition, selectivity check – biochemical, DEVD-R110 fluorescence, cherry-pick, selectivity assay for caspase-6 inhibitor project, dose response (AID 743295); format: functional
[8] = molecular target: T2, Sentrin-specific protease 6 (Homo sapiens, UniProt Q9GZR1); format: functional;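 further: Luminescence-based dose-response confirmatory assay of SENP6 inhibition, following up an ultra-high-throughput screen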
T2 sequence (Q9GZR1 whole entry): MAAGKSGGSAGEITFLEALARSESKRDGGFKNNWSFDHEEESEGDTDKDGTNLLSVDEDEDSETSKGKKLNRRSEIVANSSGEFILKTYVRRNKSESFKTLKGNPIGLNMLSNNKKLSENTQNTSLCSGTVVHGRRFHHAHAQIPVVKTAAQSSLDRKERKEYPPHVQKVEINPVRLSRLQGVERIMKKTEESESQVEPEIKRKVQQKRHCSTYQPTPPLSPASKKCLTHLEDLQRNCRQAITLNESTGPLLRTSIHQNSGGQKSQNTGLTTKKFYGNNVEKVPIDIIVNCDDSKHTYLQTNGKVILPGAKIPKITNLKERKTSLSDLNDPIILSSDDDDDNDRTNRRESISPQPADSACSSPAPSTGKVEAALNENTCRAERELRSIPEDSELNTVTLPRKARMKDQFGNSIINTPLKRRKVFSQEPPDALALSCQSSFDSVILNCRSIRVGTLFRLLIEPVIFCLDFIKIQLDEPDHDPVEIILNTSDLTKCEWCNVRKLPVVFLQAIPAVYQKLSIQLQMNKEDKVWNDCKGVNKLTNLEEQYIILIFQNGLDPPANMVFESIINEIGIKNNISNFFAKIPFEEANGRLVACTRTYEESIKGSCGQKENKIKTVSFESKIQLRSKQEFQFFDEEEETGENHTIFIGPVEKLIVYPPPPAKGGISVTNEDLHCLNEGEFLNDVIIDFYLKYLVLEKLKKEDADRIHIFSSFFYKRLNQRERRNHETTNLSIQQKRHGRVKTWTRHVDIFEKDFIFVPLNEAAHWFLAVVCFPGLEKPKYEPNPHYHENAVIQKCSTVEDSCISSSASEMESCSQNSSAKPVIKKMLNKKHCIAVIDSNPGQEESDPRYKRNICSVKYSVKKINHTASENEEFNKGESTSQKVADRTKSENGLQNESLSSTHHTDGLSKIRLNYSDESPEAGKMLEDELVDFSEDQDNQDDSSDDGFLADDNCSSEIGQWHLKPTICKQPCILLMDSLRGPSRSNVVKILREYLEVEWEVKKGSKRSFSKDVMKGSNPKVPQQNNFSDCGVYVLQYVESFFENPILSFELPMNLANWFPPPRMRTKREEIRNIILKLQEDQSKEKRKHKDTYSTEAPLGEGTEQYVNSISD

[9] = molecular target: T3, Mitochondrial peptide methionine sulfoxide reductase (Bos taurus, UniProt P54149); test: Absorbance-based biochemical high throughput dose response assay for activators of Methionine sulfoxide reductase A (MsrA).; format: functional
T3 sequence (P54149 whole entry): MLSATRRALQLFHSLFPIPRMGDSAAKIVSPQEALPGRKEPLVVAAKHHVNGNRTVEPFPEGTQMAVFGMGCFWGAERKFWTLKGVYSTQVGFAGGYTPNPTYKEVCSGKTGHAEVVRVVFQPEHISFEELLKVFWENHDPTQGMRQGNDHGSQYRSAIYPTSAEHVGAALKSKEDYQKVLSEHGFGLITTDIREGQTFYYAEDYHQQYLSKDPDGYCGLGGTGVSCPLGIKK

[10] = molecular target: T4, Sentrin-specific protease 8 (Homo sapiens, UniProt Q96LD8); format: functional;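 further: luminescence read-out of SENP8 inhibition, dose-response confirmation following an ultra-high-throughput screen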
T4 sequence (Q96LD8 whole entry): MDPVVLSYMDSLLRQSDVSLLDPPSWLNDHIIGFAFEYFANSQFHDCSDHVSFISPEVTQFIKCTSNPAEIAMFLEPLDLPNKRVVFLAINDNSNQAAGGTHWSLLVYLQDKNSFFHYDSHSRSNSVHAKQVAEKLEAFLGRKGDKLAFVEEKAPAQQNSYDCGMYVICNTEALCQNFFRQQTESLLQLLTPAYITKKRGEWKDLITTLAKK

Caspase-3 = molecular target: T5, Caspase-3 (Homo sapiens, UniProt P42574); format: functional;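 further: Dose-response selectivity test against caspase-3 for candidate inhibitors of sentrin-specific proteases (SENPs)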
T5 sequence (P42574 whole entry): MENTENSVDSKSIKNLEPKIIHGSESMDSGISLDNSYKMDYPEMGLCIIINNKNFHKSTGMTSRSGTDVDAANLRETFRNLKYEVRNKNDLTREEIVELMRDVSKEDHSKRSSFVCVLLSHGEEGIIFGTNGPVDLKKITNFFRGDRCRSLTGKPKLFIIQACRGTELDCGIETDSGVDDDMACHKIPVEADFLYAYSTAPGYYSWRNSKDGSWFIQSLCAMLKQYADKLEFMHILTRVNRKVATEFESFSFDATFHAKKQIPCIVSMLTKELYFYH

Caspase-6 = molecular target: T6, Caspase-6 (Homo sapiens, UniProt P55212); test: inhibition of CASP6 peptide cleavage – biochemical, VEID-R110 fluorescence, cherry-pick, dose response (AID 720632)
T6 sequence (P55212 whole entry): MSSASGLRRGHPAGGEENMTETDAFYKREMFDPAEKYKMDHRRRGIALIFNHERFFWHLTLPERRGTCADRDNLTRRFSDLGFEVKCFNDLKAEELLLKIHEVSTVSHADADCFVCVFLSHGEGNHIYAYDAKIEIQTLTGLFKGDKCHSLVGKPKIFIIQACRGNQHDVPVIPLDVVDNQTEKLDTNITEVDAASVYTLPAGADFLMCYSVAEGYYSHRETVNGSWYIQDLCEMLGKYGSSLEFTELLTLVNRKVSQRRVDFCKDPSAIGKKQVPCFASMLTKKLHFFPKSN

[11] = molecular target: T7, Polyadenylate-binding protein 1 (Homo sapiens, UniProt P11940); test: MLLE domain peptide-binding blockers, IC50 – biochemical, fluorescence polarization, FITC-PAM2 peptide, dose response (AID 602259); format: functional; details: read-out: IC50_Mean
[12] = molecular target: T7, Polyadenylate-binding protein 1; test: MLLE binding blockers, Cy5 peptide tracer – biochemical, fluorescence polarization, Cy5-PAM2 peptide, secondary, miRNA deadenylation inhibitor project, dose response (AID 602260); format: functional; details: read-out: IC50_Mean
[13] = molecular target: Metabotropic glutamate receptor 7 (Homo sapiens, UniProt Q14831); test: potentiation of glutamate EC20 at mGlu7 – cell-based, calcium mobilization, Galpha15, dose response (AID 743384); format: functional
[14] = molecular target: NAD-dependent protein deacylase sirtuin-5, mitochondrial (Homo sapiens, UniProt Q9NXA8); test: sirtuin-5 deacylation blockers, concentration series – biochemical, fluorescence imaging, cherry-pick, set 5, dose response (AID 720591);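 further: desuccinylation of succinyl peptide AMC substrate read as fluorescence after trypsin release; potency of inhibitors that lower fluorescence and may act on trypsin instead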
Transthyretin = Transthyretin (Homo sapiens, UniProt P02766); test: Luminescence-based cell-based high throughput dose response assay to identify activators of Transthyretin (TTR) transcription.; format: functional
[15] = OVCAR-3 cell viability loss – plate reader, dry powder samples, PAX8 inhibitor project, dose response (AID 743044); format: functional, cell-based
[16] = toxicity to human hepatoma HepG2 cells – cell-based, cherry-picked samples, cytotoxicity control, dose response (AID 1159577); format: functional
[17] = OVCAR8 cell viability loss – plate reader, dry powder samples, PAX8 project, dose response (AID 743197); format: functional, cell-based; details: OVCAR-8
[18] = IGROV1 cell killing – plate reader, dry powder samples, PAX8 inhibitor project, dose response (AID 743043); format: functional, cell-based; details: IGROV-1
[19] = toxicity toward immortalized ovarian surface epithelium – cell-based, plate reader, dry powder samples, cytotoxicity control for PAX8 inhibitor project, dose response (AID 743045); format: functional
[20] = A2780 cell killing – plate reader, dry powder samples, cytotoxicity control, dose response (AID 743046); format: functional, cell-based
Paired box protein Pax-8 = Paired box protein Pax-8 (Homo sapiens, UniProt Q06710); test: PAX8 transcriptional activity inhibition in RMG-I – RMG-I cells, luciferase, cherry-pick, dose response (AID 687027); format: functional, cell-based;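 further: luciferase reporter driven by Pax8 target thyroperoxidase promoter measured by SteadyGlo luminescence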
[21] = P. falciparum Dd2 growth inhibitors, dose response, SYBR Green, cherry-picked samples (AID 1159567); format: functional, cell-based
[22] = glucagon-like peptide-1 release potency in STC-1, concentration-response, half-maximal inhibitory concentration in the STC-1 line (AID 1117345); format: functional, cell-based
[23] = Potency on glucagon-like peptide 1 release, dose-response in NCI-H716 cell line, half maximal inhibitory concentration (AID 1117344); format: functional, cell-based
cells = format: functional, cell-based; details: INS-1E
[24] = IC50 of insulin release inhibition, rat insulinoma INS-1E line, 5 mM glucose, cell-based (AID 1117331); format: functional

T7 sequence (P11940 whole entry, the tested form may be a part): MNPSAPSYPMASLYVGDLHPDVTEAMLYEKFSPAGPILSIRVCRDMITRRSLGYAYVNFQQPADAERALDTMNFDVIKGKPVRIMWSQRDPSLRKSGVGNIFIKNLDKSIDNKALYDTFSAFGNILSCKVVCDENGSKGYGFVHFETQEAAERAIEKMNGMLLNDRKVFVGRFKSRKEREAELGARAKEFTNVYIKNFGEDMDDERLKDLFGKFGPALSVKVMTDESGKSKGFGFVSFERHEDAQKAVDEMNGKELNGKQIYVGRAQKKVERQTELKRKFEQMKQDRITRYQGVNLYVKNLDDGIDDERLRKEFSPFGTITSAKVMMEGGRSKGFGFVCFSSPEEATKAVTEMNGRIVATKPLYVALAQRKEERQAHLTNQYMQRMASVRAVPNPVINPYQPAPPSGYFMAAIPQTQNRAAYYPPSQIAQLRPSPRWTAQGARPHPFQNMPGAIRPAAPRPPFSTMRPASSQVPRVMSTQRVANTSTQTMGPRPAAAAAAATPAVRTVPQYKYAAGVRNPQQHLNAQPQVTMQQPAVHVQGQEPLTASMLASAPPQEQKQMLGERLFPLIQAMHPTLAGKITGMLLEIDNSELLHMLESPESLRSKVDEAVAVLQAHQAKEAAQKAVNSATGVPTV
Sequence of Caspase-8 (Q14790 217-374 limits assumed): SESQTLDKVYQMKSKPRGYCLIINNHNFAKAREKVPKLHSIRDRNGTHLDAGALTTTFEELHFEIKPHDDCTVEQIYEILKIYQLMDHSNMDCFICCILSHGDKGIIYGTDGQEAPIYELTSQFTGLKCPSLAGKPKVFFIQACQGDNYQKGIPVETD
Sequence of Caspase-8 (Q14790 385-479 limits assumed): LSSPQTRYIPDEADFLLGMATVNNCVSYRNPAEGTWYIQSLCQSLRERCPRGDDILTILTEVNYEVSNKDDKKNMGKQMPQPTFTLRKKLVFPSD
Sequence of Caspase-9 (P55211 1-315 limits assumed): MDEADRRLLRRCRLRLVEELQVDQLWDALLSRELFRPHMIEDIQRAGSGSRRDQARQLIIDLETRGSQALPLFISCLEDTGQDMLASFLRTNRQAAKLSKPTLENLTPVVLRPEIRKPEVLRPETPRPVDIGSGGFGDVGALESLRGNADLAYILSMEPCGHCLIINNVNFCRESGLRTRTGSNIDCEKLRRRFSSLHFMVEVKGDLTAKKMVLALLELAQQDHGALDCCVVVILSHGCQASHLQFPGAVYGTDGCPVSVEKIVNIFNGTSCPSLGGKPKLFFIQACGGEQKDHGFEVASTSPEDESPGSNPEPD
Sequence of Caspase-9 (P55211 331-416 limits assumed): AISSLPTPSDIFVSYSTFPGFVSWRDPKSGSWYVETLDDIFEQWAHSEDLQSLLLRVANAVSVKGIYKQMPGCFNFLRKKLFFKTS
Sequence of Metabotropic glutamate receptor 7 (Q14831 whole entry): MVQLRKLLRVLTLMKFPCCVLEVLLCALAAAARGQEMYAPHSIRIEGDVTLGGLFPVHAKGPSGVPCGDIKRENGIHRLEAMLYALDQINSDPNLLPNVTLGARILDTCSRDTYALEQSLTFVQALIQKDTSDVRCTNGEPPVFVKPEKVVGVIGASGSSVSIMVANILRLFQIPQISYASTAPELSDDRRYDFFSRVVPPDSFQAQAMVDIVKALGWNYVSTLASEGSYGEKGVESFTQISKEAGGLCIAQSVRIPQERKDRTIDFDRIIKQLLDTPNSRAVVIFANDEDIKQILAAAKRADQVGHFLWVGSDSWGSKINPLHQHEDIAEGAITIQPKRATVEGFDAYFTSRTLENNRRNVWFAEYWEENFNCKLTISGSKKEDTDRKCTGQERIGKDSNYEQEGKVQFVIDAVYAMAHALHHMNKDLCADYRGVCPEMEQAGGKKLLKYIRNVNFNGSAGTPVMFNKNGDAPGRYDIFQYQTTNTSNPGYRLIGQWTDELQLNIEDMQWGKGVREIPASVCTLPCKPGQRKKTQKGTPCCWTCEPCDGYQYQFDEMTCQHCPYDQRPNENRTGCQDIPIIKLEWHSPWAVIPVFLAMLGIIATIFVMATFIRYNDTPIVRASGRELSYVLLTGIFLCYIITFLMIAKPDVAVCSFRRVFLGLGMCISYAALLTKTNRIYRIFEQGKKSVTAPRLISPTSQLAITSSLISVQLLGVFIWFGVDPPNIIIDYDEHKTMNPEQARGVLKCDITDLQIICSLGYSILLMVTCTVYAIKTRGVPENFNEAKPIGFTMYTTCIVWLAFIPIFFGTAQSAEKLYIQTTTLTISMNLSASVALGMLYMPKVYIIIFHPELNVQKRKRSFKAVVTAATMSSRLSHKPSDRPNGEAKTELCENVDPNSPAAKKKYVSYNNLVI
Sequence of NAD-dependent protein deacylase sirtuin-5, mitochondrial (Q9NXA8 whole entry): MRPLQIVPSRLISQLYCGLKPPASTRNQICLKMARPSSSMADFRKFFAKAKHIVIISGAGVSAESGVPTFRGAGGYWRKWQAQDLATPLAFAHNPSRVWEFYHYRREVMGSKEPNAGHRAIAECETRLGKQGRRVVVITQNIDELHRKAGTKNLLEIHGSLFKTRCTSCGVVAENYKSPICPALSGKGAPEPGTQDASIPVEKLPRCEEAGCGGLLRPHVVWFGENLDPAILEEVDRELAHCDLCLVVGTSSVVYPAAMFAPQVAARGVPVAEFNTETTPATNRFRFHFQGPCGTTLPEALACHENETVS
Sequence of Caspase-7 (P55210 24-198 limits assumed): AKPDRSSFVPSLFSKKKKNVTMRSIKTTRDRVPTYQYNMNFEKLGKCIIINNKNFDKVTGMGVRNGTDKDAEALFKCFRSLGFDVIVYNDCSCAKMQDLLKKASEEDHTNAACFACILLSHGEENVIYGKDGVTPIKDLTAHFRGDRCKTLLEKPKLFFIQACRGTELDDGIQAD
Sequence of Caspase-7 (P55210 207-303 limits assumed): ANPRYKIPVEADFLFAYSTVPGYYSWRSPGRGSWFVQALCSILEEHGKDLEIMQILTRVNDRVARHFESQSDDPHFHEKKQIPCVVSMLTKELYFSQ
Sequence of Paired box protein Pax-8 (Q06710 whole entry): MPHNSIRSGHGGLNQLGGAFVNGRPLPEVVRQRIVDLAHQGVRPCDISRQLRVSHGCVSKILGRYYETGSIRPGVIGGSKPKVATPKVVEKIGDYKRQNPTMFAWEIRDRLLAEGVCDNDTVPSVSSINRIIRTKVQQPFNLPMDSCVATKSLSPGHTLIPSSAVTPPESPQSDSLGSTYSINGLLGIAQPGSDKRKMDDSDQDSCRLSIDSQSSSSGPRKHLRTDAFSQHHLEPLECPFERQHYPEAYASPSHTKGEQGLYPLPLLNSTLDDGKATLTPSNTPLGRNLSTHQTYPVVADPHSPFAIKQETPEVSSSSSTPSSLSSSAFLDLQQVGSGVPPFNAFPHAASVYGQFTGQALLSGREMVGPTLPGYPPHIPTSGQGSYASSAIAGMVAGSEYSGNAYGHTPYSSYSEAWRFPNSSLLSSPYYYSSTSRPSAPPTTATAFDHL

Compound: Cc1ccc2c(CN3CCN(S(=O)(=O)c4ccc5c(c4)OCCO5)CC3)cc(=O)oc2c1C
- AC50 [1]: > 70 µM (inactive)
- AC50 [2]: 3.95 µM (active) and 5.68 µM (active) and 3.52 µM (active)
- AC50 [3]: > 70 µM (inactive)
- AC50 [4]: 4.58 µM (active)
- AC50 [5]: 4.06 µM (active)
- AC50 [6]: 424 nM (active)

Compound: O=C(Nc1cccc(F)c1)N1CCCCN2[C@@H](CO)[C@H](c3ccc(C#Cc4ccccc4)cc3)[C@@H]2C1
- AC50 [15]: 17.2 µM (active)
- AC50 [16]: 7.6 µM (active)
- AC50 [17]: 65.6 µM (active)
- AC50 [18]: 29.4 µM (active)
- AC50 [19]: 63.4 µM (active)
- AC50 [20]: 19.8 µM (active)
- AC50 (Paired box protein Pax-8): 9.89 µM (active)
- AC50 [21]: < 300 nM (active)

Compound: Nc1cc(C(F)(F)F)ccc1S
- IC50 [22]: 1.16 µM (active)
- IC50 [23]: 15.3 µM (inactive)

Compound: Nc1c2c(nc3ccccc13)CCCC2 [TACRINE]
- IC50 (cells): > 33.3 µM (inactive)
- IC50 [24]: 17.6 µM (inactive)

More lines, main results first:

- IC50 [7]: 6.5 µM (active)
- AC50 (Caspase-9): 25.5 µM (active)
- AC50 (Caspase-8): 25.5 µM (active)
- AC50 (Caspase-7): 17.4 µM (active)
- IC50 [8]: 4.39 µM (active)
- EC50 [9]: 57.5 µM (inactive)
- IC50 (Caspase-3): 8.76 µM (active)
- AC50 (Caspase-6): 2.49 µM (active)
Compound: O=C(COC(=O)c1ccc([N+](=O)[O-])s1)Nc1ccccc1
- IC50 [10]: 4.04 µM (active)

- IC50 [11]: > 66 µM (inactive)
- IC50 [12]: > 66 µM (inactive)
- EC50 [13]: 2.4 µM (active)
Compound: CC(=O)Nc1ccc(SCC(=O)c2cc(C)n(-c3ccccc3F)c2C)cc1

- AC50 [14]: > 30 µM (inactive)
Compound: CCCCC(=O)Nc1ccc2c(c1)nc(CCNC(=O)c1ccco1)n2C

- EC50 (Transthyretin): > 167 µM (inactive)
Compound: CCn1ncc(/C=N\NC(=O)c2csc3ccccc23)c1C
